“Also recorded” adds a separate entry of the source.
Assays:
cotton fibers = experiment: In vitro cotton ovule culture, fiber growth (fiber length); assay type: cell-based, Gossypium hirsutum; conditions: for increase in average fiber length: by 7 dpa; for block of promotion of fiber growth by 30 μM ATPγS and ADPβS: co-applied with 30 μM nucleotide, 7 dpa; for reversal of the effects of high concentrations of ATPγS and ADPβS on fiber growth: co-applied with 150 μM ATPγS or ADPβS; for block of both the inhibition and stimulation of fiber growth by ATPγS and ADPβS: summary statement
Experimental: In Vitro Ovule Culture. Cotton bolls were harvested within 24 hours of flower opening, 1-DPA, and all petals bracts, and sepals were removed. All collected cotton bolls were used within 24 hours of original harvest. If the bolls were not used immediately they were stored in a 4° C. refrigerator until ready for use. For sterilization, bolls were dropped into an 85% ethanol solution for at least 30 seconds but not more than two minutes and then removed with forceps. The excess ethanol was shaken off and the boll was passed through a flame until the residual ethanol was burned off. Ovules were then excised and placed in 10 mL of BT Cotton Media cell culture (Caisson Laboratories, Inc., North Logan, Utah, USA)+5.0 μM IAA and 0.5 μM GA3 (Sigma, St. Louis, Mo., USA) hormone solution, final concentration, in 60×15 mm Petri dishes and were then wrapped in Milli Wrap (Millipore Corporation, Bedford, Mass.). Twelve to 16 cotton ovules were placed into their respective Petri dishes and incubated with nucleotides, inhibitors, antibody serum or a combination of these at specified concentrations and were cultured at 32° C. in the dark without agitation. To facilitate combing of the cultured ovules, ovules were placed in a 75% ethanol solution for 15 minutes and then taken out to be combed. Fiber lengths were measured manually with a dissecting microscope after laying the ovule on its side and combing the fiber cells away from the ovule with forceps and dissecting probe.
In Vitro Cotton Ovule Culture Treatments. For studies testing the effects of apyrase inhibitors on cotton fiber growth, the inhibitors (NGXT191 and AI #4, both at 2.5 mg/mL), were dissolved in dimethyl sulfoxide and then applied to Cotton Media cell culture at 3 and 5 DPA after the introduction of cotton ovules to the media. For experiments testing the effects of apyrase antibodies on cotton fiber growth, apyrase antibodies were applied to Cotton Media cell culture at 3 and 5 DPA after the introduction of cotton ovules in the appropriate amounts. For experiments testing the effects of applying nucleotides during cotton fiber growth, various concentrations of ATPγS, ADPβS, and AMP (Sigma-Aldrich, Inc., St. Louis, Mo., USA) were added to Cotton Media cell culture at 5 DPA after the introduction of cotton ovules in the appropriate amounts. All nucleotides were made into 50 mM stocks dissolved in de-ionized water and kept at −20° C. while not in use. The inhibitor stocks were stored at ˜20° C. while not in use. For experiments testing the effects of P2-receptor antagonists, the antagonists (PPADS and Adenosine, stocks at 50 mM) were dissolved in de-ionized water and then applied to Cotton Media cell culture at 3 and 5 DPA for inhibitor and antibody experiments and 5 DPA for applied nucleotide experiments. The antagonists stocks were stored at ˜20° C. while not in use (Sigma-Aldrich, Inc., St. Louis, Mo., USA). The ethylene inhibitor (S)-trans-2-Amino-4-(2-aminoethoxy)-3-butenoic acid hydrochloride (Sigma-Aldrich, Inc., St. Louis, Mo., USA) (AVG, stock at 50 mM) was dissolved in de-ionized water and then applied to Cotton Media cell culture at 5 DPA. The production of the Arabidopsis anti-APY1 and APY2 antibodies used is described by Steinebrunner et al. (2003). The crude immune and pre-immune sera were purified using protein A-sepharose following the protocol described by Martin et al. (1982) with the slight modification that the buffers used were azide-free. Bio-rad assay was used to determine that the concentration of the immune serum and pre-immune serum which was 0.46 μg/mL and 0.3 μg/mL, respectively.

apyrase activity = experiment: ATP level in the medium outside growing cotton fibers in ovule culture; assay type: cell-based, Gossypium hirsutum; conditions: highest concentration of inhibitor, versus control level of 330 nM
Excerpt: Apyrase inhibitors and anti-apyrase antibodies inhibit fiber elongation. In order to test whether apyrase activity is important during cotton fiber growth we applied varying concentrations of two different chemical apyrase inhibitors, apyrase inhibitor 4 and NGXT191, to cotton ovule cultures at 3 dpa and 5 dpa. […] There is clearly a dose-dependent effect, and the effects at each dosage are statistically significant. […] The level of inhibition increased with increasing concentrations of both inhibitors. Next when PPADS, an inhibitor of animal purinoceptors, was tested, it could block the 40% inhibition of fiber growth caused by application of the highest concentration of apyrase inhibitors. […] Application of the highest concentration of inhibitors NGXT191 and 4 caused a 2.1-fold and 3.2-fold increase in ATP levels, respectively.
In Vitro Ovule Culture. Cotton bolls were harvested within 24 hours of flower opening, 1-DPA, and all petals bracts, and sepals were removed. All collected cotton bolls were used within 24 hours of original harvest. If the bolls were not used immediately they were stored in a 4° C. refrigerator until ready for use. […] Fiber lengths were measured manually with a dissecting microscope after laying the ovule on its side and combing the fiber cells away from the ovule with forceps and dissecting probe. […]

| Structure (SMILES) | increase in average fiber length (cotton fibers; 30 μM) | effect on fiber growth (cotton fibers; 150 μM, at 7 dpa) | block of promotion of fiber growth by 30 μM ATPγS and ADPβS (cotton fibers) | reversal of the effects of high concentrations of ATPγS and ADPβS on fiber growth (cotton fibers) | block of both the inhibition and stimulation of fiber growth by ATPγS and ADPβS (cotton fibers) | also measured |
| --- | --- | --- | --- | --- | --- | --- |
| Nc1ncnc2c1ncn2[C@@H]1O[C@H](COP(=O)(O)OP(O)(O)=S)[C@@H](O)[C@H]1O [ADPβS] | 44% | inhibit growth |  |  |  |  |
| Nc1ncnc2c1ncn2[C@@H]1O[C@H](COP(O)(O)=S)[C@@H](O)[C@H]1O [AMPS] |  |  |  |  |  | effect on fiber growth (cotton fibers; 200 μM, at 7 dpa): no effect on growth; effect on fiber growth (cotton fibers; concentration not given): no change in the growth rate; also recorded: no effect on fiber growth |
| Nc1ncnc2c1ncn2[C@@H]1O[C@H](COP(=O)(O)OP(=O)(O)OP(O)(O)=S)[C@@H](O)[C@H]1O [ATPγS] | 46% | inhibit growth |  |  |  | promotion of cotton fiber growth (cotton fibers; 30 μM, at 5 dpa (data not shown)): statistically significant levels of promotion of cotton fiber growth; growth rate of fibers (cotton fibers; 30 μM, between 5 dpa and 7 dpa (data not shown)): statistically significant increase in the growth rate; inhibition of cotton fiber growth (cotton fibers; 150 μM, at 5 dpa): Statistically significant levels of inhibition of cotton fiber growth |
| Cc1cccc(NS(=O)(=O)c2ccc(-c3ccccc3)cc2)c1 [NGXT191] |  |  |  |  |  | inhibition of fiber growth (cotton fibers; all three concentrations, applied at 3 dpa and 5 dpa, fibers measured at 7 dpa): statistically significant inhibition of fiber growth; increase in ATP levels outside of the growing fibers (apyrase activity): 2.1 fold |
| Cc1nc(N=Nc2ccc(S(=O)(=O)O)cc2S(=O)(=O)O)c(COP(=O)(O)O)c(C=O)c1O [PPADS] |  |  | blocked | reversed | blocked | reversal of fiber growth inhibition caused by apyrase inhibitors (cotton fibers; 250 μM PPADS in the media with highest concentration of apyrase inhibitors): returned to control levels |
| Nc1ncnc2c1ncn2[C@@H]1O[C@H](CO)[C@@H](O)[C@H]1O [adenosine] |  |  | blocked | reversed | blocked |  |
